Literature values in patent publication US20090011476A1, “GENE CLUSTER AND METHOD FOR THE BIOSYNTHESIS OF TERREQUINONE A” (Wisconsin Alumni Research Foundation, priority 2005, published 2009).

Test system: tumor cell lines
Conditions: literature statement, values not given

terrequinone A
inhibitory properties on tumor cell lines: inhibitory properties
